Experimental findings from PubChem BioAssay (NCI) are described below.

This assay relates to P388 leukemia. Nature of the assay: NCI tumour cell line growth inhibition, 48 h.

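Each compound was tested at five concentrations against cells in 96-well plates for 48 hours. Here, GI50 denotes the concentration required for 50% inhibition of growth. TGI is the concentration that stops growth completely.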

As to `[CH3][Sn]([CH3])([CH3])[S]C(=S)N1CCOCC1`, the GI50 is 82 nM and the TGI is 389 nM.
